The values below come from US9351974B2, “Substituted pteridinones for the treatment of cancer” (OSI Pharmaceuticals, LLC, priority 2011, dated 2016).

Each structure is given as a SMILES string. A value given as a limit tells only on which side of the number the result lay.

The target in the experiment is T1, His-tagged full-length RSK2 (RPS6KA3) (Homo sapiens, UniProt P51812).
T1 construct: His-tagged full-length RSK2 (RPS6KA3, Invitrogen PV3323); His; purchased Invitrogen PV3323
T1 sequence (P51812 whole entry): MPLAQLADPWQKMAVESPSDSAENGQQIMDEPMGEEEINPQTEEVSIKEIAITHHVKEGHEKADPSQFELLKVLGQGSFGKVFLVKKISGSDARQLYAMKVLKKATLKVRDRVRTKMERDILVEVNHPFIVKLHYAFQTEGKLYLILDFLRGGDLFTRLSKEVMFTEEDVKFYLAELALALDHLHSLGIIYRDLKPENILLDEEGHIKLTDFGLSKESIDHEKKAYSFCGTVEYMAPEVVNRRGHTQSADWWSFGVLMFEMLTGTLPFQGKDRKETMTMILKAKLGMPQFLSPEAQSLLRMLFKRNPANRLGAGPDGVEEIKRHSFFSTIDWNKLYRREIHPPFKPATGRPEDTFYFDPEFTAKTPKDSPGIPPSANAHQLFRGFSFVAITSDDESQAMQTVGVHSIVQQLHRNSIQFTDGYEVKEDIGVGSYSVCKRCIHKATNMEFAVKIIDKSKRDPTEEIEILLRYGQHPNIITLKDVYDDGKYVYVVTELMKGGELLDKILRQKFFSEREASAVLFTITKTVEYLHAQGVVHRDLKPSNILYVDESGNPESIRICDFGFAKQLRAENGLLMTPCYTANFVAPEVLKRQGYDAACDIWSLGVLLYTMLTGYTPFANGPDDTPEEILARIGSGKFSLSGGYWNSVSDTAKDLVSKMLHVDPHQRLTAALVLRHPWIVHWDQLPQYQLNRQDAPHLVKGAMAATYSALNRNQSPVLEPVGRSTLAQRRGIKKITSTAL
Description: RSK2 Omnia Assay for compound IC50 determination. The class given is biochemical. Particulars: ATP 15 μM, n=2, read-out: Mean RSK2 Biochem IC50. The method, boiled down:
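Continuous fluorescence assay (ex 360/em 485 nm) of SOX-peptide (Omnia ST Peptide 6, 5 μM) phosphorylation with ATP 15 μM (Km 16.3 μM). Enzyme was […], in pH 7.5 HEPES/MgCl2 buffer with 1% DMSO. IC50 came from 11-point threefold dilutions ([…]) by four-parameter fit of initial slopes, in duplicate; Ki by Cheng-Prusoff assuming competitive inhibition.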
In general, IC50 refers to the concentration at which inhibition is half-maximal. On to `CC(C)CCN1c2cc(Nc3ccc4[nH]ncc4c3)ncc2N(c2ccccc2)C(=O)C1C` (centres unmarked) [Example 310, 7-(1H-indazol-5-ylamino)-2-methyl-1-(3-methylbutyl)-4-phenyl-1,4-dihydropyrido[3,4-b]pyrazin-3(2H)-one], for which the IC50 fell in the range of 0.1 to 1 µM.
On to `C[C@@H]1C(=O)N(c2cc(F)cc(F)c2)c2cnc(Nc3ccc4[nH]ncc4c3)nc2N1C1CCCCC1` [compound 95, (7R)-8-cyclohexyl-5-(3,5-difluorophenyl)-2-(1H-indazol-5-ylamino)-7-methyl-7,8-dihydropteridin-6(5H)-one], for which the IC50 was at most 0.1 µM.
`C[C@@H]1C(=O)N(c2ccc(F)c(C#N)c2)c2cnc(Nc3ccc4[nH]ncc4c3)nc2N1C1CCCCC1` [compound 96, 5-[(7R)-8-cyclohexyl-2-(1H-indazol-5-ylamino)-7-methyl-6-oxo-7,8-dihydropteridin-5(6H)-yl]-2-fluorobenzonitrile]: the IC50 is at most 0.1 µM.
As to `C[C@@H]1C(=O)N(c2cccc(C#N)c2)c2cnc(Nc3cc(Cl)c4[nH]ncc4c3)nc2N1C1CCCCC1` [compound 97, 3-[(7R)-2-[(7-chloro-1H-indazol-5-yl)amino]-8-cyclohexyl-7-methyl-6-oxo-7,8-dihydropteridin-5(6H)-yl]benzonitrile], the IC50 was at most 0.1 µM.
For the molecule `CSc1ccc(N2C(=O)[C@@H](C)N(C3CCCCC3)c3nc(Nc4ccc5[nH]ncc5c4)ncc32)cn1` [compound 98, (7R)-8-cyclohexyl-2-(1H-indazol-5-ylamino)-7-methyl-5-[6-(methylsulfanyl)pyridin-3-yl]-7,8-dihydropteridin-6(5H)-one], the IC50 was at most 0.1 µM.
Consider `COc1cc(F)cc(N2C(=O)[C@@H](C)N(C3CCCCC3)c3nc(Nc4ccc5[nH]ncc5c4)ncc32)c1` [compound 99, (7R)-8-cyclohexyl-5-(3-fluoro-5-methoxyphenyl)-2-(1H-indazol-5-ylamino)-7-methyl-7,8-dihydropteridin-6(5H)-one], for which the IC50 is at most 0.1 µM.
In the case of `C[C@@H]1C(=O)N(c2cccc(C#N)c2)c2cnc(Nc3ccc4[nH]ncc4c3F)nc2N1C1CCCCC1` [compound 100, 3-[(7R)-8-cyclohexyl-2-[(4-fluoro-1H-indazol-5-yl)amino]-7-methyl-6-oxo-7,8-dihydropteridin-5(6H)-yl]benzonitrile], the IC50 is at most 0.1 µM.
In the case of `C[C@@H]1C(=O)N(c2cccc(C#N)c2)c2cnc(Nc3ccc4[nH]ncc4c3Cl)nc2N1C1CCCCC1` [compound 101, 3-[(7R)-2-[(4-chloro-1H-indazol-5-yl)amino]-8-cyclohexyl-7-methyl-6-oxo-7,8-dihydropteridin-5(6H)-yl]benzonitrile], the IC50 is above 1 µM.
As to `COc1c(Nc2ncc3c(n2)N(C2CCCCC2)[C@H](C)C(=O)N3c2cccc(C#N)c2)ccc2[nH]ncc12` [compound 102, 3-[(7R)-8-cyclohexyl-2-[(4-methoxy-1H-indazol-5-yl)amino]-7-methyl-6-oxo-7,8-dihydropteridin-5(6H)-yl]benzonitrile], the IC50 was 0.1 to 1 µM.
In the case of `Cc1n[nH]c2ccc(Nc3ncc4c(n3)N(C3CCCCC3)[C@H](C)C(=O)N4c3cccc(C#N)c3)cc12` [compound 103, 3-[(7R)-8-cyclohexyl-7-methyl-2-[(3-methyl-1H-indazol-5-yl)amino]-6-oxo-7,8-dihydropteridin-5(6H)-yl]benzonitrile] it was 0.1 to 1 µM; in that of `COc1ccc(N2C(=O)[C@@H](C)N(C3CCCCC3)c3nc(Nc4ccc5[nH]ncc5c4)ncc32)cc1C#N` [compound 104, 5-[(7R)-8-cyclohexyl-2-(1H-indazol-5-ylamino)-7-methyl-6-oxo-7,8-dihydropteridin-5(6H)-yl]-2-methoxybenzonitrile], at most 0.1 µM; in that of `C[C@@H]1C(=O)N(c2ccc(Cl)c(C#N)c2)c2cnc(Nc3ccc4[nH]ncc4c3)nc2N1C1CCCCC1` [compound 105, 2-chloro-5-[(7R)-8-cyclohexyl-2-(1H-indazol-5-ylamino)-7-methyl-6-oxo-7,8-dihydropteridin-5(6H)-yl]benzonitrile], at most 0.1 µM.
In the case of `C[C@@H]1C(=O)N(c2cccc(C#N)c2)c2cnc(Nc3cc(F)c4[nH]ncc4c3)nc2N1C1CCCCC1` [compound 106, 3-[(7R)-8-cyclohexyl-2-[(7-fluoro-1H-indazol-5-yl)amino]-7-methyl-6-oxo-7,8-dihydropteridin-5(6H)-yl]benzonitrile] it was at most 0.1 µM.
For the molecule `C[C@@H]1C(=O)N(c2cccc(C#N)c2)c2cnc(Nc3ccc(F)c4[nH]ncc34)nc2N1C1CCCCC1` [compound 107, 3-[(7R)-8-cyclohexyl-2-[(7-fluoro-1H-indazol-4-yl)amino]-7-methyl-6-oxo-7,8-dihydropteridin-5(6H)-yl]benzonitrile], the IC50 lay within 0.1 to 1 µM.
In the case of `C[C@@H]1C(=O)N(c2cccc(C#N)c2)c2cnc(Nc3ccc4[nH]nc(Cl)c4c3)nc2N1C1CCCCC1` [compound 108, 3-[(7R)-2-[(3-chloro-1H-indazol-5-yl)amino]-8-cyclohexyl-7-methyl-6-oxo-7,8-dihydropteridin-5(6H)-yl]benzonitrile], the IC50 was at most 0.1 µM.
As for `C[C@@H]1C(=O)N(c2cccc(C#N)c2)c2cnc(Nc3ccc4sncc4c3)nc2N1C1CCCCC1` [compound 109, 3-[(7R)-2-(1,2-benzothiazol-5-ylamino)-8-cyclohexyl-7-methyl-6-oxo-7,8-dihydropteridin-5(6H)-yl]benzonitrile], the figure is 0.1 to 1 µM; as for `COCc1cccc(N2C(=O)[C@@H](C)N(C3CCCCC3)c3nc(Nc4ccc5[nH]ncc5c4)ncc32)c1` [compound 110, (7R)-8-cyclohexyl-2-(1H-indazol-5-ylamino)-5-[3-(methoxymethyl)phenyl]-7-methyl-7,8-dihydropteridin-6(5H)-one], at most 0.1 µM; as for `COc1ccc(N2C(=O)[C@@H](C)N(C3CCCCC3)c3nc(Nc4ccc5[nH]ncc5c4)ncc32)cc1OC` [compound 111, (7R)-8-cyclohexyl-5-(3,4-dimethoxyphenyl)-2-(1H-indazol-5-ylamino)-7-methyl-7,8-dihydropteridin-6(5H)-one], at most 0.1 µM.
Consider `C[C@@H]1C(=O)N(c2cc(F)cc(C#N)c2)c2cnc(Nc3ccc4[nH]ncc4c3)nc2N1C1CCCCC1` [compound 112, 3-[(7R)-8-cyclohexyl-2-(1H-indazol-5-ylamino)-7-methyl-6-oxo-7,8-dihydropteridin-5(6H)-yl]-5-fluorobenzonitrile], for which the IC50 is at most 0.1 µM.
In the case of `Cc1ccc(N2C(=O)[C@@H](C)N(C3CCCCC3)c3nc(Nc4ccc5[nH]ncc5c4)ncc32)cn1` [compound 113, (7R)-8-cyclohexyl-2-(1H-indazol-5-ylamino)-7-methyl-5-(6-methylpyridin-3-yl)-7,8-dihydropteridin-6(5H)-one], the IC50 was at most 0.1 µM.
`C[C@@H]1C(=O)N(c2cccc([S+](C)[O-])c2)c2cnc(Nc3ccc4[nH]ncc4c3)nc2N1C1CCCCC1` (stereo partly drawn) [compound 114, (7R)-8-cyclohexyl-2-(1H-indazol-5-ylamino)-7-methyl-5-[3-(methylsulfinyl)phenyl]-7,8-dihydropteridin-6(5H)-one]: the IC50 was at most 0.1 µM.
Regarding `C[C@@H]1C(=O)N(c2cccc(C#N)c2)c2cnc(Nc3ccc4[nH]nc(F)c4c3)nc2N1C1CCCCC1` [compound 115, 3-[(7R)-8-cyclohexyl-2-[(3-fluoro-1H-indazol-5-yl)amino]-7-methyl-6-oxo-7,8-dihydropteridin-5(6H)-yl]benzonitrile], the IC50 is at most 0.1 µM.
Turning to `COc1n[nH]c2ccc(Nc3ncc4c(n3)N(C3CCCCC3)[C@H](C)C(=O)N4c3cccc(C#N)c3)cc12` [compound 116, 3-[(7R)-8-cyclohexyl-2-[(3-methoxy-1H-indazol-5-yl)amino]-7-methyl-6-oxo-7,8-dihydropteridin-5(6H)-yl]benzonitrile], the IC50 is at most 0.1 µM.
As for `Cc1c(Nc2ncc3c(n2)N(C2CCCCC2)[C@H](C)C(=O)N3c2cccc(C#N)c2)ccc2[nH]ncc12` [compound 117, 3-[(7R)-8-cyclohexyl-7-methyl-2-[(4-methyl-1H-indazol-5-yl)amino]-6-oxo-7,8-dihydropteridin-5(6H)-yl]benzonitrile], the figure is 0.1 to 1 µM; as for `C[C@@H]1C(=O)N(c2cccc(C#N)c2)c2cnc(Nc3cc4cn[nH]c4cc3Cl)nc2N1C1CCCCC1` [compound 118, 3-[(7R)-2-[(6-chloro-1H-indazol-5-yl)amino]-8-cyclohexyl-7-methyl-6-oxo-7,8-dihydropteridin-5(6H)-yl]benzonitrile], at most 0.1 µM.
As for `COc1cc2[nH]ncc2cc1Nc1ncc2c(n1)N(C1CCCCC1)[C@H](C)C(=O)N2c1cccc(C#N)c1` [compound 119, 3-[(7R)-8-cyclohexyl-2-[(6-methoxy-1H-indazol-5-yl)amino]-7-methyl-6-oxo-7,8-dihydropteridin-5(6H)-yl]benzonitrile], the figure is above 1 µM; as for `C[C@@H]1C(=O)N(c2cccc(F)c2)c2cnc(Nc3ccc4[nH]ncc4c3F)nc2N1C1CCCCC1` [compound 120, (7R)-8-cyclohexyl-2-[(4-fluoro-1H-indazol-5-yl)amino]-5-(3-fluorophenyl)-7-methyl-7,8-dihydropteridin-6(5H)-one], at most 0.1 µM.
Take `Cc1ccc(N2C(=O)[C@@H](C)N(C3CCCCC3)c3nc(Nc4ccc5[nH]ncc5c4)ncc32)cc1F` [compound 121, (7R)-8-cyclohexyl-5-(3-fluoro-4-methylphenyl)-2-(1H-indazol-5-ylamino)-7-methyl-7,8-dihydropteridin-6(5H)-one]: the IC50 was at most 0.1 µM.
As for `C[C@@H]1C(=O)N(c2cccnc2)c2cnc(Nc3ccc4[nH]ncc4c3F)nc2N1C1CCCCC1` [compound 122, (7R)-8-cyclohexyl-2-[(4-fluoro-1H-indazol-5-yl)amino]-7-methyl-5-(pyridin-3-yl)-7,8-dihydropteridin-6(5H)-one], the figure is at most 0.1 µM.
